Measurements reported in patent publication US10988477B2 (Merck Patent GmbH, priority 2018, dated 2021).
Read-outs that look alike come from different tables or passages of the source.

How the values were obtained:
[1] = molecular target: GCN2 kinase (Homo sapiens, UniProt Q9P2K8); assay: GCN2 enzyme inhibition assay (Transcreener ADP2 fluorescence polarization); type: biochemical; details: 280 μM ATP
Summary of the method: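 ADP formation read by Transcreener FP after a 1 h, 25 °C kinase reaction containing 280 μM ATP, 200 μM (RS)7 substrate and 4 nM GCN2, pH 7.5 Tris buffer. Compounds (0–8 μM final) were added 10 min before ATP. Percent inhibition gave IC50 and apparent Ki via tight-binding fit.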

[2] = molecular target: intracellular GCN2 (phosphorylation of the GCN2 substrate eIF2α) (Homo sapiens, UniProt Q9P2K8); assay: GCN2 cellular inhibition assay (AlphaScreen SureFire P-eIF2α Ser51, borrelidin-treated U2OS cells); type: cell-based
Chain of intracellular GCN2 (phosphorylation of the GCN2 substrate eIF2α) (Q9P2K8 whole entry): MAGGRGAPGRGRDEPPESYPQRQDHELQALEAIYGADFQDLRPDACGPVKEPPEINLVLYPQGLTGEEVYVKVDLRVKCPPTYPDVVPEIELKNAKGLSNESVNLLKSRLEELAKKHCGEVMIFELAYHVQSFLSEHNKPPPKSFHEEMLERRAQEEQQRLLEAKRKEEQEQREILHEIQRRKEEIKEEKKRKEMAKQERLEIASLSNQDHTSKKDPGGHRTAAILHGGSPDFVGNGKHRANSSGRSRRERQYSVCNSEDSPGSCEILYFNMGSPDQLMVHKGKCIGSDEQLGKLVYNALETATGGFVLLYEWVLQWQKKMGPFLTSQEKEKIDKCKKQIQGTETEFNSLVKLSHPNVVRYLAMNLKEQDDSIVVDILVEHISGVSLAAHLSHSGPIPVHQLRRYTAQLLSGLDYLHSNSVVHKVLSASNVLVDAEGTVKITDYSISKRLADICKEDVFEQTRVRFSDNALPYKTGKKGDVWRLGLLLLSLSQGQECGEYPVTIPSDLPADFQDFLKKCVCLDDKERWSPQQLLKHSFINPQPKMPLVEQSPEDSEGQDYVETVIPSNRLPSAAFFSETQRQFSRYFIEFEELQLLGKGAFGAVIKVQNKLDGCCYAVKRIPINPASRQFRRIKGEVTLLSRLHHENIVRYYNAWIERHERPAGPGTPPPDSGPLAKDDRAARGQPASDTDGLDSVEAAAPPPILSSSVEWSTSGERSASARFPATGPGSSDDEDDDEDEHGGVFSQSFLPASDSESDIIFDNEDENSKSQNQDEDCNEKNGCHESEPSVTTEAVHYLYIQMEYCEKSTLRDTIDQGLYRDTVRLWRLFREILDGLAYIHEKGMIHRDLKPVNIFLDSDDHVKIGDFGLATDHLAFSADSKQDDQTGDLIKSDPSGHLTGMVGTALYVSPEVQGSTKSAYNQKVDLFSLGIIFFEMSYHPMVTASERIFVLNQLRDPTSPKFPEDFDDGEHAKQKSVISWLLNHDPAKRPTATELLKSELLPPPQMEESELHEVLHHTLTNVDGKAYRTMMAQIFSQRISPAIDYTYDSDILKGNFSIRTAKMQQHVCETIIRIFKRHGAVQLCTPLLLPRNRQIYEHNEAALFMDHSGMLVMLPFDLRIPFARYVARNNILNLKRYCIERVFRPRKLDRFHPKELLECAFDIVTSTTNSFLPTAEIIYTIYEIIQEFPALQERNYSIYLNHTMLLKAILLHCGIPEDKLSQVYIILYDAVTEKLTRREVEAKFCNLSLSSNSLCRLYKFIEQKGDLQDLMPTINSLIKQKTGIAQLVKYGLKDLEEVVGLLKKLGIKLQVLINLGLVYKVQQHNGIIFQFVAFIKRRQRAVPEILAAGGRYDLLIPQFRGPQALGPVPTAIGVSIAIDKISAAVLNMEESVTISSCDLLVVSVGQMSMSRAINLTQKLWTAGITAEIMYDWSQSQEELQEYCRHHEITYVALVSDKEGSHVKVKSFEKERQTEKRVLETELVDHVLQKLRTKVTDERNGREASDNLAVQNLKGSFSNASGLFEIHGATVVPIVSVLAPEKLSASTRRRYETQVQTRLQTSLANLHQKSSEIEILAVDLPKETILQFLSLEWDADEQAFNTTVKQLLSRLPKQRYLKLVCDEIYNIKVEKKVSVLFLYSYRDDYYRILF
Summary of the method: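 Read-out: AlphaScreen SureFire phospho-eIF2α (Ser51) signal in U2OS lysates. Cells get 4-fold compound dilutions (top 40 μM final) plus 10 μM borrelidin, 1 h, 37 °C. Percent inhibition is relative to borrelidin-alone controls.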

[3] = compounds of Formula II, 4 nM GCN2 kinase
[4] = compounds of Formula II, biomarker assay, phosphorylated eIF2α Ser51 in borrelidin-treated U2OS cells
[5] = compounds of Formula V, 4 nM GCN2 kinase
[6] = compounds of Formula V, U2OS cells, 10 μM borrelidin, 1 h, read-out: GCN2 Biomarker (IC50)
[7] = Enzyme activity for compounds of Formula IV, Ki(app), 25° C.
[8] = compounds of Formula IV, biomarker assay, phosphorylated eIF2α Ser51 in borrelidin-treated U2OS cells

Chain of GCN2 kinase (Q9P2K8 whole entry): as above

Ki [1, 3] [nM] | IC50 [2, 4] [nM] | Compound | further results
< 10 | < 500 | CS(=O)(=O)NCC1CN(c2ccnc(-c3cnc4ccc(C(F)F)nn34)c2)CCC1(F)F (centres unmarked) [II-103, N-((1-(2-(6-(Difluoromethyl)imidazo[1,2-b]pyridazin-3-yl)pyridin-4-yl)-4,4-difluoropiperidin-3-yl)methyl)methanesulfonamide] | –
10 to 1000 | 500 to 5000 | CC1CC(N=S(C)(C)=O)CN(c2cc(-c3cnc4ccc(C(F)F)nn34)ncn2)C1 (single isomer, unassigned) [II-540, ((1-(6-(6-(Difluoromethyl)imidazo[1,2-b]pyridazin-3-yl)pyrimidin-4-yl)-5-methylpiperidin-3-yl)imino)dimethyl-λ^6-sulfanone] | –
< 10 | < 500 | CS(=O)(=O)NCC1CCCN(c2ccnc(-c3cnc4ccc(C(F)F)nn34)c2)C1 (centres unmarked) [II-125, N-((1-(2-(6-(Difluoromethyl)imidazo[1,2-b]pyridazin-3-yl)pyridin-4-yl)piperidin-3-yl)methyl)methanesulfonamide] | –
< 10 | 500 to 5000 | CS(=O)(=O)NCC1CCCN(c2cc(-c3cnc4ccc(C(F)F)nn34)cc(CN)n2)C1 (centres unmarked) [II-80, N-((1-(6-(Aminomethyl)-4-(6-(difluoromethyl)imidazo[1,2-b]pyridazin-3-yl)pyridin-2-yl)piperidin-3-yl)methyl)methanesulfonamide] | –
10 to 1000 | 500 to 5000 | NC(=O)CCC1CCN(c2cc(-c3cnc4ccc(C(F)F)nn34)ncn2)CC1 [II-212, 3-(1-(6-(6-(Difluoromethyl)imidazo[1,2-b]pyridazin-3-yl)pyrimidin-4-yl)piperidin-4-yl)propanamide] | –
– | – | FC(F)(F)c1cn2c(-c3nccc(N4CCOC(c5cn[nH]c5)C4)n3)cnc2s1 (centres unmarked) [Compound V-20, 2-(1H-pyrazol-4-yl)-4-(2-(2-(trifluoromethyl)imidazo[2,1-b]thiazol-5-yl)pyrimidin-4-yl)morpholine] | Ki [1, 5]: < 10 nM; IC50 [2, 6]: < 500 nM
10 to 1000 | > 5000 | O=S(=O)(NCC1CCCN(c2cc(-c3cnc4ccc(C(F)F)nn34)ncn2)C1)C1CNC1 (centres unmarked) [II-272, N-((1-(6-(6-(Difluoromethyl)imidazo[1,2-b]pyridazin-3-yl)pyrimidin-4-yl)piperidin-3-yl)methyl)azetidine-3-sulfonamide] | –
< 10 | < 500 | CC1CC(CNS(C)(=O)=O)CN(c2cc(-c3cnc4ccc(C(F)F)nn34)ncn2)C1 (centres unmarked) [II-397, N-((1-(6-(6-(Difluoromethyl)imidazo[1,2-b]pyridazin-3-yl)pyrimidin-4-yl)-5-methylpiperidin-3-yl)methyl)methanesulfonamide] | –
– | – | OC1CCN(c2ccnc(-c3cnc4cnc(C(F)(F)F)cn34)n2)CC1c1cn[nH]c1 (single isomer, unassigned) [IV-624, 3-(1H-Pyrazol-4-yl)-1-(2-(6-(trifluoromethyl)imidazo[1,2-a]pyrazin-3-yl)pyrimidin-4-yl)piperidin-4-ol] | Ki [1, 7]: 10 to 100 nM; IC50 [2, 8]: 500 to 5000 nM
< 10 | < 500 | CCC1CC(N=S(C)(C)=O)CN(c2cc(-c3cnc4ccc(C(F)F)nn34)ncn2)C1 (single isomer, unassigned) [II-650, ((1-(6-(6-(Difluoromethyl)imidazo[1,2-b]pyridazin-3-yl)pyrimidin-4-yl)-5-ethylpiperidin-3-yl)imino)dimethyl-λ^6-sulfanone] | –
– | – | Cc1n[nH]cc1[C@H]1C[C@@H](C)CN(c2nccc(-c3cnc4cnc(C(F)(F)F)cn34)n2)C1 [IV-758, 3-(2-((3R,5R)-3-methyl-5-(3-methyl-1H-pyrazol-4-yl)piperidin-1-yl)pyrimidin-4-yl)-6-(trifluoromethyl)imidazo[1,2-a]pyrazine] | IC50 ([1]; compounds of Formula IV, 4 nM GCN2 kinase): 10 to 1000 nM; IC50 [2, 8]: < 500 nM
– | – | NC(=O)C1COCCN(c2ccnc(-c3cnc4cnc(C(F)F)cn34)n2)C1 (centres unmarked) [IV-128, 4-(2-(6-(Difluoromethyl)imidazo[1,2-a]pyrazin-3-yl)pyrimidin-4-yl)-1,4-oxazepane-6-carboxamide] | Ki [1, 7]: 100 to 1000 nM; IC50 [2, 8]: > 5000 nM
– | – | FC(F)(F)c1cn2c(-c3nccc(N4CCO[C@@H](c5cn[nH]c5)C4)n3)cnc2s1 (stereo in doubt) [Compound V-4, 2-(1H-pyrazol-4-yl)-4-(2-(2-(trifluoromethyl)imidazo[2,1-b]thiazol-5-yl)pyrimidin-4-yl)morpholine] | Ki [1, 5]: 10 to 100 nM; IC50 [2, 6]: 500 to 5000 nM
– | – | NC(=O)[C@H]1CCCN(c2ccnc(-c3cnc4sc(C(F)(F)F)cn34)n2)C1 [Compound V-10, (3S)-1-[2-[2-(Trifluoromethyl)imidazo[2,1-b]thiazol-5-yl]pyrimidin-4-yl]piperidine-3-carboxamide] | Ki [1, 5]: < 10 nM; IC50 [2, 6]: < 500 nM
– | – | CNc1cc(N2CC(C)NC(c3cn[nH]c3)C2C)nc(-c2cnc3cnc(C(F)(F)F)cn23)n1 (centres unmarked) [IV-578, 6-(2,5-Dimethyl-3-(1H-pyrazol-4-yl)piperazin-1-yl)-N-methyl-2-(6-(trifluoromethyl)imidazo[1,2-a]pyrazin-3-yl)pyrimidin-4-amine] | Ki [1, 7]: < 10 nM; IC50 [2, 8]: 500 to 5000 nM
– | – | C[C@@H]1CCC[C@H](C)N1c1ccnc(-c2cnc3cnc(C(F)F)cn23)n1 [IV-122, 6-(Difluoromethyl)-3-(4-((2S,6R)-2,6-dimethylpiperidin-1-yl)pyrimidin-2-yl)imidazo[1,2-a]pyrazine] | Ki [1, 7]: 100 to 1000 nM; IC50 [2, 8]: > 5000 nM
10 to 1000 | 500 to 5000 | CC1CC(CNS(C)(=O)=O)CN1c1cc(-c2cnc3ccc(C(F)F)nn23)ncn1 (centres unmarked) [II-8, N-((1-(6-(6-(Difluoromethyl)imidazo[1,2-b]pyridazin-3-yl)pyrimidin-4-yl)-5-methylpyrrolidin-3-yl)methyl)methanesulfonamide] | –
– | – | CC1CN(c2ccnc(-c3cnc4cnc(C(F)(F)F)cn34)n2)CC(c2c[nH]cn2)O1 (single isomer, unassigned) [IV-405, 2-(1H-Imidazol-4-yl)-6-methyl-4-(2-(6-(trifluoromethyl)imidazo[1,2-a]pyrazin-3-yl)pyrimidin-4-yl)morpholine] | Ki [1, 7]: < 10 nM; IC50 [2, 8]: < 500 nM
< 10 | < 500 | CC1C(CNS(C)(=O)=O)C(C)(O)C(C)CN1c1cc(-c2cnc3ccc(C(F)F)nn23)ncn1 (centres unmarked) [II-618, N-((1-(6-(6-(Difluoromethyl)imidazo[1,2-b]pyridazin-3-yl)pyrimidin-4-yl)-4-hydroxy-2,4,5-trimethylpiperidin-3-yl)methyl)methanesulfonamide] | –
– | – | CS(=O)(=O)NC[C@@H]1CN(c2nc(-c3cnc4cnc(C(F)(F)F)cn34)ns2)CCO1 [IV-705, (S)—N-((4-(3-(6-(trifluoromethyl)imidazo[1,2-a]pyrazin-3-yl)-1,2,4-thiadiazol-5-yl)morpholin-2-yl)methyl)methanesulfonamide] | Ki [1, 7]: 100 to 1000 nM; IC50 [2, 8]: > 5000 nM
< 10 | < 500 | CS(=O)(=O)N1CC2(CCCN(c3cc(-c4cnc5ccc(C(F)F)nn45)ccn3)C2)C1 [II-136, 6-(Difluoromethyl)-3-(2-(2-(methylsulfonyl)-2,6-diazaspiro[3.5]nonan-6-yl)pyridin-4-yl)imidazo[1,2-b]pyridazine] | –
< 10 | 500 to 5000 | CC1C(CO)CCCN1c1cc(-c2cnc3ccc(C(F)F)nn23)ncn1 (centres unmarked) [II-373, (1-(6-(6-(Difluoromethyl)imidazo[1,2-b]pyridazin-3-yl)pyrimidin-4-yl)-2-methylpiperidin-3-yl)methanol] | –
< 10 | < 500 | C[C@H]1[C@@H](CNS(C)(=O)=O)OC(C)(C)CN1c1cc(-c2cnc3ccc(C(F)F)nn23)ncn1 (single isomer, unassigned) [II-490] | –
10 to 1000 | > 5000 | CC1C(CO)CCCN1c1cc(-c2cnc3ccc(C(F)F)nn23)ncn1 (single isomer, unassigned) [II-393, (1-(6-(6-(Difluoromethyl)imidazo[1,2-b]pyridazin-3-yl)pyrimidin-4-yl)-2-methylpiperidin-3-yl)methanol] | –
< 10 | < 500 | CS(=O)(=O)NCC1CCCN(c2cc(-c3cnc4ccc(C(F)F)nn34)cc(N3CC4(CCN4)C3)n2)C1 (centres unmarked) [II-67, N-((1-(4-(6-(Difluoromethyl)imidazo[1,2-b]pyridazin-3-yl)-6-(1,6-diazaspiro[3.3]heptan-6-yl)pyridin-2-yl)piperidin-3-yl)methyl)methanesulfonamide] | –
– | – | FC(F)c1cn2c(-c3nccc(N4CCCC(c5cn[nH]c5)C4)n3)cnc2cn1 (centres unmarked) [IV-58, 3-(4-(3-(1H-Pyrazol-4-yl)piperidin-1-yl)pyrimidin-2-yl)-6-(difluoromethyl)imidazo[1,2-a]pyrazine] | Ki [1, 7]: 10 to 100 nM; IC50 [2, 8]: 500 to 5000 nM
10 to 1000 | 500 to 5000 | NC(=O)NCC1CCCN(c2cc(-c3cnc4ccc(C(F)F)nn34)ncn2)C1 (centres unmarked) [II-215, 1-((1-(6-(6-(Difluoromethyl)imidazo[1,2-b]pyridazin-3-yl)pyrimidin-4-yl)piperidin-3-yl)methyl)urea] | –
< 10 | < 500 | NS(=O)(=O)CC1CCCN(c2cc(-c3cnc4ccc(C(F)F)nn34)ncn2)C1 (centres unmarked) [II-219, (1-(6-(6-(Difluoromethyl)imidazo[1,2-b]pyridazin-3-yl)pyrimidin-4-yl)piperidin-3-yl)methanesulfonamide] | –
